Here are results for two compounds from patent publication US20220249475A1, “COMPOUNDS AND METHOD FOR TREATING CYTOKINE RELEASE SYNDROME” (Rigel Pharmaceuticals, Inc., priority 2019, published 2022).

Assay type in all cases: cell-based
Test [1] has as its system Dendritic cells + T cells + CD3/CD28 beads. Briefly: CRS assay: Cell Titer Glo compound cytotoxicity. Particulars: Homo sapiens, luminescence of the remaining culture, read-out: Cell Titer Glo 2 EC50. The source says:
(§1) Human PBMC cells (PPA Research Group, Cat No. 15-00021); RPMI media 10% FBS; GMCSF (Peprotech, Cat No. 300-03) and IL4 (Peprotech Cat No. 200-04); White clear bottom 96 well plates (Fisher, Cat No. 07-200-587, Corning #3903); Human IL-2 DuoSet ELISA (R&D Systems, Cat No. DY202); Human IL-6 DuoSet ELISA (R&D Systems, Cat No. DY206); Cell Titer Glo reagent (Promega, Cat No. G7573); Dynabeads Human T-Activator CD3/CD28 (Fisher, Cat No. 111.61D); Anti-human CD3 (BD Biosciences, Cat No. 555336); CD28, Clone CD28.2 (Beckman Coulter Inc. Cat No. IM1376); Recombinant Human IL-2 Protein (R&D Systems, Cat No. 202-IL-500).
After 4 days, the dendritic cells were harvested by spinning down (1000 rpm/10 min) and aspirating the media. After resuspending the cells in fresh RPMI media (10% FBS), the cells were plated (25K/well in 50 μl) onto a white clear bottom 96 well plate. […] of RPMI media containing 2× concentrated test compound was added per well to the above cell-culture media (final concentration becomes 1×) and the plates were pre-incubated for 1 hour at 37° C. […]
(§2) After incubation, 80 μl of the supernatant was harvested from each well for IL6 ELISA and 80 μl of the supernatant for IL2 ELISA. […] The plate was read for luminescence intensity to determine the compound cytotoxicity.

Test [2] shares this test system. The test can be described thus: CRS assay: dendritic cells + T cells + CD3/CD28 beads, IL6 ELISA. As to conditions: human PBMC-derived dendritic cells, 1 hour compound pre-incubation, overnight with T cells and CD3/CD28 beads; IL-6 primarily produced by the dendritic cells.
For test [3] the test system is unchanged. The test can be described thus: CRS assay: dendritic cells + T cells + CD3/CD28 beads, IL2 ELISA. As to conditions: Homo sapiens; same culture; IL-2 only produced by the activated T cells.
Source text: as §1
Human peripheral blood mononuclear cells (PBMC) (400 million) obtained from the vendor were transferred into three T-175 flasks containing 16 ml RPMI media (10% fetal bovine serum (FBS)) and incubated for 2 hours at 37° C. After 2 hours, floating PBL was removed and the cell was rinsed twice with 10 ml of media. The PBL and media was saved for T cell expansion. 16 ml of fresh RPMI media (10% FBS) containing Granulocyte Macrophage Colony—Stimulating Factor (GMCSF) (100 ng/ml) and IL4 (20 ng/ml) was added and the flask was kept in a 37° C. incubator. […]
as §2

SMILES strings stand for the structures.

With `COc1cc(Nc2ncc(C)c(Nc3ccc4oc(=O)[nH]c4c3)n2)cc(C)c1F` [Compound I-432, 5-(2-(4-fluoro-3-methoxy-5-methylphenylamino)-5-methylpyrimidin-4-ylamino)benzo[d]oxazol-2(3H)-one], the EC50 in test [1] is 4.55 µM; in test [2], 0.052 µM; in test [3] it was 4.41 µM.
Regarding `CCO[C@H]1CC[C@H](n2cc(NC(=O)c3csc(-c4cn[nH]c4)n3)c(-c3nc(F)ccc3F)n2)CC1` [VI-176, N-(3-(3,6-difluoropyridin-2-yl)-1-((1r,4r)-4-ethoxycyclohexyl)-1H-pyrazol-4-yl)-2-(1H-pyrazol-4-yl)thiazole-4-carboxamide], the EC50 in test [1] was determined as 12 µM; in test [2] it was 0.195 µM; in test [3], 6.9 µM.
